Results taken from patent publication US9873690B2, “3-indol substituted derivatives, pharmaceutical compositions and methods for use” (Pfizer Inc., priority 2015, dated 2018).
pIC50: −log10 of the molar value.

Biological target: T1, hTDO2 (Homo sapiens, UniProt P48775)
T1 construct: endogenous in cells; host or cells: A172 human brain glioblastoma cells (ATCC CRL-1620)
Test: Cellular assay for TDO2 activity determination in A172 cells
Type: cell-based
Settings: human glioblastoma A172 cells naturally expressing hTDO2; overnight incubation; kynurenine by absorbance at 480 nm
Description: The compounds of formula I inhibit the activity of human TDO2 in cells that constitutively express TDO2, such as A172 cells. A172 is a cell line derived from human brain glioblastoma cells. The cells are available from the American Type Culture Collection (ATCC®) as CRL-1620™.
The assay (adapted from Pilotte L et al., Proc Natl Acad Sci USA, 2012, 109(7), 2497-502) was performed in 96-well flat bottom plates seeded with human glioblastoma A172 cells, naturally expressing hTDO2 (prepared as described in Tilman et al., Mol Cancer, 2007, 17(6), 80), at a concentration of 1.25×10^4 cells/well in a final volume of 200 μL. To determine TDO, the cells were incubated overnight at 37° C. at 5% CO2 in IMDM (Invitrogen) supplemented with 2% FBS and 2% penicillin/streptomycin in the presence of the compounds of the present invention, at different concentrations.
The plates were then centrifuged 5 min at 1000 rpm, and 100 μL of the supernatant were collected in a conical plate, 30 μL of TCA 30% were added and a further centrifuged at 3000×g for 10 minutes. 100 μL of the supernatant were collected in a flat bottomed plate and 100 μL of 2% (w/v) 4-(dimethylamino)-benzaldehyde in acetic acid and incubated for 5 min at room temperature. Kynurenine concentrations were determined by measuring the absorbance at 480 nm. A standard curve was made with pure kynurenine. The TDO activity was measured as described above using ten serial concentrations of the compounds of the present invention. Data were fitted using the Prism™ software (GraphPad Software, Inc.) using standard parameters.
The biological activity of representative compounds in human brain glioblastoma cells as determined in the above-referenced assay is summarized in the following table: […]

T1 sequence (P48775 whole entry): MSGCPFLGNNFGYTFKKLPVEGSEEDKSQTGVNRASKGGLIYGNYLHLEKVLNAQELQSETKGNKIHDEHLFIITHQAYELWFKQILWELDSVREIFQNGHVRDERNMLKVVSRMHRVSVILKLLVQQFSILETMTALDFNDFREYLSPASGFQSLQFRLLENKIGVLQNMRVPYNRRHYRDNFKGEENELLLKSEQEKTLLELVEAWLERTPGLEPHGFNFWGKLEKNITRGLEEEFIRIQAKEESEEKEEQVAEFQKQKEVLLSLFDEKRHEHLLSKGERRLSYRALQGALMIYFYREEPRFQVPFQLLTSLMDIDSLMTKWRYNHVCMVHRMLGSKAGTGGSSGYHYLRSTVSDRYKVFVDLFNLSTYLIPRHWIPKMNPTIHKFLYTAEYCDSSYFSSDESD

| pIC50 | Structure (SMILES) |
| --- | --- |
| 5.09 | COC(=O)C1NS(=O)(=O)c2ccc(-c3c[nH]c4cc(F)ccc34)cc21 (racemic) [Example 14, methyl 5-(6-fluoro-1H-indol-3-yl)-2,3-dihydrobenzo-[d]isothiazole-3-carboxylate 1,1-dioxide] |
| 7.57 | C[C@H]1NS(=O)(=O)c2ccc(-c3c[nH]c4cc(F)ccc34)cc21 (single isomer, unassigned) [Example 1, (+)-5-(6-fluoro-1H-indol-3-yl)-3-methyl-2,3-dihydro-1,2-benzothiazole 1,1-dioxide] |
| 6.96 | C[C@@H]1NS(=O)(=O)c2ccc(-c3c[nH]c4cc(F)ccc34)cc21 (single isomer, unassigned) [Example 2, (−)-5-(6-fluoro-1H-indol-3-yl)-3-methyl-2,3-dihydro-1,2-benzothiazole 1,1-dioxide] |
| 6.50 | CC1c2cc(-c3c[nH]c4cc(F)ccc34)ccc2S(=O)(=O)N1CC1(C)COC(=O)N1 (single isomer, unassigned) [Example 87] |
| 6.57 | CC1c2cc(-c3c[nH]c4cc(F)ccc34)ccc2S(=O)(=O)N1C[C@@H](O)CO (single isomer, unassigned) [Example 93] |
| 6.94 | CC1c2cc(-c3c[nH]c4cc(F)ccc34)ccc2S(=O)(=O)N1C[C@H](O)CO (single isomer, unassigned) [Example 95] |
| 6.44 | CNC(=O)C(N)CN1C(C)c2cc(-c3c[nH]c4cc(F)ccc34)ccc2S1(=O)=O (single isomer, unassigned) [Example 101] |
| 7.18 | CNCC1NS(=O)(=O)c2ccc(-c3c[nH]c4cc(F)ccc34)cc21 (single isomer, unassigned) [Example 137, 5-(6-fluoro-1H-indol-3-yl)-3-((methylamino)methyl)-2,3-dihydrobenzo[d]isothiazole 1,1-dioxide] |
| 7.23 | CNC(=O)C(C)N1C(C)c2cc(-c3c[nH]c4cc(F)ccc34)ccc2S1(=O)=O (single isomer, unassigned) [Example 147, 2-(5-(6-fluoro-1H-indol-3-yl)-3-methyl-1,1-dioxidobenzo[d]isothiazol-2(3H)-yl)-N-methylpropanamide] |
| 7.19 | CCC1NS(=O)(=O)c2ccc(-c3c[nH]c4cc(F)ccc34)cc21 (single isomer, unassigned; (+)) [Example 3, (+)-3-ethyl-5-(6-fluoro-1H-indol-3-yl)-2,3-dihydrobenzo[d]-isothiazole 1,1-dioxide] |
| 6.44 | CCCC1NS(=O)(=O)c2ccc(-c3c[nH]c4cc(F)ccc34)cc21 (single isomer, unassigned; (+)) [Example 6, (+)-5-(6-fluoro-1H-indol-3-yl)-3-propyl-2,3-dihydrobenzo[d]isothiazole 1,1-dioxide] |
| 7.33 | CC(C)C1NS(=O)(=O)c2ccc(-c3c[nH]c4cc(F)ccc34)cc21 (single isomer, unassigned; (+)) [Example 8, (+)-5-(6-fluoro-1H-indol-3-yl)-3-isopropyl-2,3-dihydrobenzo[d]isothiazole 1,1-dioxide] |
| 6.62 | O=S1(=O)NC(C2CC2)c2cc(-c3c[nH]c4cc(F)ccc34)ccc21 (single isomer, unassigned; (+)) [Example 10, (+)-3-cyclopropyl-5-(6-fluoro-1H-indol-3-yl)-2,3-dihydrobenzo[d]isothiazole 1,1-dioxide] |
| 7.37 | O=S1(=O)NC(CO)c2cc(-c3c[nH]c4cc(F)ccc34)ccc21 (single isomer, unassigned; (+)) [Example 13, (+)-5-(6-fluoro-1H-indol-3-yl)-3-(hydroxymethyl)-2,3-dihydrobenzo[d]isothiazole 1,1-dioxide] |
| 5.86 | NC(=O)C1NS(=O)(=O)c2ccc(-c3c[nH]c4cc(F)ccc34)cc21 (single isomer, unassigned; (+)) [Example 16, (+)-5-(6-fluoro-1H-indol-3-yl)-2,3-dihydrobenzo[d]-isothiazole-3-carboxamide 1,1-dioxide] |
| 5.30 | CNC(=O)C1NS(=O)(=O)c2ccc(-c3c[nH]c4cc(F)ccc34)cc21 (single isomer, unassigned; (+)) [Example 18, (+)-5-(6-fluoro-1H-indol-3-yl)-N-methyl-2,3-dihydrobenzo[d]isothiazole-3-carboxamide 1,1-dioxide] |
| 6.51 | NCC1NS(=O)(=O)c2ccc(-c3c[nH]c4cc(F)ccc34)cc21 (single isomer, unassigned; (+)) [Example 19, (+)-3-(aminomethyl)-5-(6-fluoro-1H-indol-3-yl)-2,3-dihydrobenzo[d]isothiazole 1,1-dioxide] |
| 6.19 | COC(=O)NCC1NS(=O)(=O)c2ccc(-c3c[nH]c4cc(F)ccc34)cc21 (single isomer, unassigned; (+)) [Example 22, (+)-methyl ((5-(6-fluoro-1H-indol-3-yl)-1,1-dioxido-2,3-dihydrobenzo[d]isothiazol-3-yl)methyl)carbamate] |
| 6.59 | CC(=O)NCC1NS(=O)(=O)c2ccc(-c3c[nH]c4cc(F)ccc34)cc21 (single isomer, unassigned; (+)) [Example 24, (+)-N-((5-(6-fluoro-1H-indol-3-yl)-1,1-dioxido-2,3-dihydrobenzo[d]isothiazol-3-yl)methyl)acetamide] |
| 6.36 | CN(C)CC1NS(=O)(=O)c2ccc(-c3c[nH]c4cc(F)ccc34)cc21 (single isomer, unassigned; (+)) [Example 26, (+)-3-((dimethylamino)methyl)-5-(6-fluoro-1H-indol-3-yl)-2,3-dihydrobenzo[d]isothiazole 1,1-dioxide] |
| 6.65 | CC(=O)N(C)CC1NS(=O)(=O)c2ccc(-c3c[nH]c4cc(F)ccc34)cc21 (single isomer, unassigned; (+)) [Example 27, (+)-N-((5-(6-fluoro-1H-indol-3-yl)-1,1-dioxido-2,3-dihydrobenzo[d]isothiazol-3-yl)methyl)-N-methylacetamide] |
| 7.47 | O=S1(=O)NC(CCO)c2cc(-c3c[nH]c4cc(F)ccc34)ccc21 (single isomer, unassigned; (+)) [Example 30, (+)-5-(6-fluoro-1H-indol-3-yl)-3-(2-hydroxyethyl)-2,3-dihydrobenzo[d]isothiazole 1,1-dioxide] |
| 6.85 | C[S+]([O-])CCN1Cc2cc(-c3c[nH]c4cc(F)ccc34)ccc2S1(=O)=O (single isomer, unassigned; (+)) [Example 42, (+)-5-(6-fluoro-1H-indol-3-yl)-2-(2-(methylsulfinyl)ethyl)-2,3-dihydrobenzo[d]isothiazole 1,1-dioxide] |
| 7.15 | CNC(=O)CCN1C(C)c2cc(-c3c[nH]c4cc(F)ccc34)ccc2S1(=O)=O (single isomer, unassigned; (+)) [Example 45, (+)-3-(5-(6-fluoro-1H-indol-3-yl)-3-methyl-1,1-dioxidobenzo[d]-isothiazol-2(3H)-yl)-N-methylpropanamide] |
| 6.70 | CC1c2cc(-c3c[nH]c4cc(F)ccc34)ccc2S(=O)(=O)N1CCC(N)=O (single isomer, unassigned; (+)) [Example 47, (+)-3-(5-(6-fluoro-1H-indol-3-yl)-3-methyl-1,1-dioxidobenzo[d]isothiazol-2(3H)-yl)propanamide] |
